Data as given in US5288720A, “Angiotensin II receptor blocking 2,3,6 substituted quinazolinones” (American Cyanamid Company, priority 1993, dated 1994).

Test system: ANGIOTENSIN II VASOPRESSOR RESPONSE
Assay: AII Challenge: blockade of angiotensin II vasopressor response in conscious SHR
Format: in vivo, rat (Conscious Male Okamoto-Aoki SHR)
Conditions: SHR n=2
Method in brief: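 Conscious male Okamoto-Aoki SHR (16-20 weeks, ~330 g) cannulated in aorta and vena cava under local procaine; angiotensin II (human) 0.05 and 0.1 ug/kg i.v. given before and at 30-300 min after test compound i.v., i.p. or orally. Rise in systolic pressure (mmHg) expressed as % blockade versus each rat's predose response.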

[1] = 3 mg/kg i.v., AII 0.05 mcg/kg IV, 30 min post dose
[2] = 3 mg/kg i.v., AII 0.05 mcg/kg IV, 60 min post dose
[3] = 3 mg/kg i.v., AII 0.05 mcg/kg IV, 90 min post dose
[4] = 3 mg/kg i.v., AII 0.05 mcg/kg IV, 120 min post dose
[5] = 3 mg/kg i.v., AII 0.05 mcg/kg IV, 180 min post dose
[6] = 3 mg/kg i.v., AII 0.05 mcg/kg IV, 240 min post dose
[7] = 3 mg/kg i.v., AII 0.05 mcg/kg IV, 300 min post dose
[8] = 3 mg/kg i.v., AII 0.1 mcg/kg IV, 30 min post dose
[9] = 3 mg/kg i.v., AII 0.1 mcg/kg IV, 60 min post dose
[10] = 3 mg/kg i.v., AII 0.1 mcg/kg IV, 90 min post dose
[11] = 3 mg/kg i.v., AII 0.1 mcg/kg IV, 120 min post dose
[12] = 3 mg/kg i.v., AII 0.1 mcg/kg IV, 180 min post dose
[13] = 3 mg/kg i.v., AII 0.1 mcg/kg IV, 240 min post dose
[14] = 3 mg/kg i.v., AII 0.1 mcg/kg IV, 300 min post dose
[15] = 3 mg/kg p.o., AII 0.05 mcg/kg IV, 30 min post dose
[16] = 3 mg/kg p.o., AII 0.05 mcg/kg IV, 60 min post dose
[17] = 3 mg/kg p.o., AII 0.05 mcg/kg IV, 90 min post dose
[18] = 3 mg/kg p.o., AII 0.05 mcg/kg IV, 120 min post dose
[19] = 3 mg/kg p.o., AII 0.05 mcg/kg IV, 180 min post dose
[20] = 3 mg/kg p.o., AII 0.05 mcg/kg IV, 240 min post dose
[21] = 3 mg/kg p.o., AII 0.1 mcg/kg IV, 30 min post dose
[22] = 3 mg/kg p.o., AII 0.1 mcg/kg IV, 60 min post dose
[23] = 3 mg/kg p.o., AII 0.1 mcg/kg IV, 90 min post dose
[24] = 3 mg/kg p.o., AII 0.1 mcg/kg IV, 120 min post dose
[25] = 3 mg/kg p.o., AII 0.1 mcg/kg IV, 180 min post dose
[26] = 3 mg/kg p.o., AII 0.1 mcg/kg IV, 240 min post dose

CCCCc1nc2ccc(C(OC)C3CCCO3)cc2c(=O)n1Cc1ccc(-c2ccccc2-c2nn[nH]n2)cc1 (single isomer, unassigned) [Example 24]
% Inhibition of AII vasopressor response [1]: 100%
Average Change (systolic blood pressure response to AII) [1]: 0 mmHg
% Inhibition of AII vasopressor response [2]: 93%
Average Change (systolic blood pressure response to AII) [2]: 2.5 mmHg
% Inhibition of AII vasopressor response [3]: 93%
Average Change (systolic blood pressure response to AII) [3]: 2.5 mmHg
% Inhibition of AII vasopressor response [4]: 87%
Average Change (systolic blood pressure response to AII) [4]: 5 mmHg
% Inhibition of AII vasopressor response [5]: 80%
Average Change (systolic blood pressure response to AII) [5]: 7.5 mmHg
% Inhibition of AII vasopressor response [6]: 80%
Average Change (systolic blood pressure response to AII) [6]: 7.5 mmHg
% Inhibition of AII vasopressor response [7]: 83%
Average Change (systolic blood pressure response to AII) [7]: 6.5 mmHg
% Inhibition of AII vasopressor response [8]: 100%
Average Change (systolic blood pressure response to AII) [8]: 0 mmHg
% Inhibition of AII vasopressor response [9]: 87%
Average Change (systolic blood pressure response to AII) [9]: 5 mmHg
% Inhibition of AII vasopressor response [10]: 87%
Average Change (systolic blood pressure response to AII) [10]: 5 mmHg
% Inhibition of AII vasopressor response [11]: 100%
Average Change (systolic blood pressure response to AII) [11]: 0 mmHg
% Inhibition of AII vasopressor response [12]: 81%
Average Change (systolic blood pressure response to AII) [12]: 7.5 mmHg
% Inhibition of AII vasopressor response [13]: 62%
Average Change (systolic blood pressure response to AII) [13]: 15 mmHg
% Inhibition of AII vasopressor response [14]: 59%
Average Change (systolic blood pressure response to AII) [14]: 16 mmHg
% Inhibition of AII vasopressor response [15]: 64%
Average Change (systolic blood pressure response to AII) [15]: 17.5 mmHg
% Inhibition of AII vasopressor response [16]: 54%
Average Change (systolic blood pressure response to AII) [16]: 22.5 mmHg
% Inhibition of AII vasopressor response [17]: 48%
Average Change (systolic blood pressure response to AII) [17]: 25 mmHg
% Inhibition of AII vasopressor response [18]: 54%
Average Change (systolic blood pressure response to AII) [18]: 22.5 mmHg
% Inhibition of AII vasopressor response [19]: 20%
Average Change (systolic blood pressure response to AII) [19]: 39 mmHg
% Inhibition of AII vasopressor response [20]: 12%
Average Change (systolic blood pressure response to AII) [20]: 42.5 mmHg
% Inhibition of AII vasopressor response [21]: 57%
Average Change (systolic blood pressure response to AII) [21]: 22.5 mmHg
% Inhibition of AII vasopressor response [22]: 38%
Average Change (systolic blood pressure response to AII) [22]: 32.5 mmHg
% Inhibition of AII vasopressor response [23]: 33%
Average Change (systolic blood pressure response to AII) [23]: 35 mmHg
% Inhibition of AII vasopressor response [24]: 29%
Average Change (systolic blood pressure response to AII) [24]: 37.5 mmHg
% Inhibition of AII vasopressor response [25]: 29%
Average Change (systolic blood pressure response to AII) [25]: 37.5 mmHg
% Inhibition of AII vasopressor response [26]: 24%
Average Change (systolic blood pressure response to AII) [26]: 40 mmHg

CCCCc1nc2ccc(C(OC)C3CCCO3)cc2c(=O)n1Cc1ccc(-c2ccccc2-c2nn[nH]n2)cc1 (single isomer, unassigned; isomer 1) [Example 23, 2-Butyl-6-[methoxy(tetrahydro-2-furanyl)methyl-3-[[2'-(1H-tetrazol-5-yl)[1,1'-biphenyl]-4-yl]-methyl]-4(3e,uns/H/ )-quinazolinone isomer 1]
% Inhibition of AII vasopressor response [1]: 97%
Average Change (systolic blood pressure response to AII) [1]: 1 mmHg
% Inhibition of AII vasopressor response [2]: 93%
Average Change (systolic blood pressure response to AII) [2]: 2.5 mmHg
% Inhibition of AII vasopressor response [3]: 79%
Average Change (systolic blood pressure response to AII) [3]: 7.5 mmHg
% Inhibition of AII vasopressor response [4]: 79%
Average Change (systolic blood pressure response to AII) [4]: 7.5 mmHg
% Inhibition of AII vasopressor response [5]: 79%
Average Change (systolic blood pressure response to AII) [5]: 7.5 mmHg
% Inhibition of AII vasopressor response [6]: 60%
Average Change (systolic blood pressure response to AII) [6]: 14 mmHg
% Inhibition of AII vasopressor response [7]: 50%
Average Change (systolic blood pressure response to AII) [7]: 17.5 mmHg
% Inhibition of AII vasopressor response [8]: 96%
Average Change (systolic blood pressure response to AII) [8]: 1.5 mmHg
% Inhibition of AII vasopressor response [9]: 84%
Average Change (systolic blood pressure response to AII) [9]: 6.5 mmHg
% Inhibition of AII vasopressor response [10]: 79%
Average Change (systolic blood pressure response to AII) [10]: 8.5 mmHg
% Inhibition of AII vasopressor response [11]: 81%
Average Change (systolic blood pressure response to AII) [11]: 7.5 mmHg
% Inhibition of AII vasopressor response [12]: 75%
Average Change (systolic blood pressure response to AII) [12]: 10 mmHg
% Inhibition of AII vasopressor response [13]: 50%
Average Change (systolic blood pressure response to AII) [13]: 20 mmHg
% Inhibition of AII vasopressor response [14]: 50%
Average Change (systolic blood pressure response to AII) [14]: 20 mmHg
% Inhibition of AII vasopressor response [15]: 58%
Average Change (systolic blood pressure response to AII) [15]: 20 mmHg
% Inhibition of AII vasopressor response [16]: 21%
Average Change (systolic blood pressure response to AII) [16]: 37.5 mmHg
% Inhibition of AII vasopressor response [17]: 37%
Average Change (systolic blood pressure response to AII) [17]: 30 mmHg
% Inhibition of AII vasopressor response [18]: 47%
Average Change (systolic blood pressure response to AII) [18]: 25 mmHg
% Inhibition of AII vasopressor response [19]: 21%
Average Change (systolic blood pressure response to AII) [19]: 37.5 mmHg
% Inhibition of AII vasopressor response [21]: 18%
Average Change (systolic blood pressure response to AII) [21]: 45 mmHg
% Inhibition of AII vasopressor response [22]: 14%
Average Change (systolic blood pressure response to AII) [22]: 47.5 mmHg
% Inhibition of AII vasopressor response [23]: 32%
Average Change (systolic blood pressure response to AII) [23]: 37.5 mmHg
% Inhibition of AII vasopressor response [24]: 36%
Average Change (systolic blood pressure response to AII) [24]: 35 mmHg
% Inhibition of AII vasopressor response [25]: 9%
